Laboratory results reported in ChEMBL document CHEMBL1201862, “PubChem BioAssay data set” (2004).
Active and inactive are the calls of the source.

Legend:
[1] = tested on: HEK293; experiment: NOD2 signaling inhibitors in MDP-stimulated cells, cell-based, uHTS, luminescence (AID 2001); format: functional; settings: Homo sapiens
[2] = tested on: HEK293; experiment: cells; format: functional, cell-based; settings: Homo sapiens
[3] = tested on: HEK293; experiment: cells; format: functional, cell-based; settings: Homo sapiens; remark: listed apart in the source
[4] = tested on: HEK293; experiment: NOD1 signaling inhibitors, primary screen, cell-based, luminescence, uHTS (AID 1578); format: functional; settings: Homo sapiens
[5] = target: Peroxisome proliferator-activated receptor gamma/Nuclear receptor coactivator 3 (Homo sapiens, UniProt P37231); format: functional;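 also: agonist potency for raising coactivator recruitment to the receptor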
[6] = target: Peroxisome proliferator-activated receptor gamma/Nuclear receptor coactivator 2 (Homo sapiens, UniProt P37231); format: functional;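 also: agonist potency for raising coactivator recruitment to the receptor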
[7] = target: Peroxisome proliferator-activated receptor gamma/Nuclear receptor coactivator 1 (Homo sapiens, UniProt P37231); format: functional;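 also: agonist potency as compounds enhance coactivator SRC-1 recruitment to PPARgamma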
[8] = target: T1, Endoribonuclease toxin MazF (Escherichia coli K-12, UniProt P0AE70); experiment: fluorescent RNA oligo signal without MazF, dose response, counter-screen for MazEF activator project, biochemical, fluorescence, single-stranded RNase substrate (AID 588502); format: functional
T1 sequence (P0AE70 whole entry): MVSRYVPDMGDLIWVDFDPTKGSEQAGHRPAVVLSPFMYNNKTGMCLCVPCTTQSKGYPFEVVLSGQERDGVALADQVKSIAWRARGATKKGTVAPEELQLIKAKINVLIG

[9] = target: T1, Endoribonuclease toxin MazF; experiment: MazF toxin RNase activators, dose response, biochemical, fluorescence, single-stranded RNA substrate, uHTS hits (AID 588481); format: functional
[10] = cytotoxicity in OVCAR8 ovarian cancer cells, dose response, PAX8 project, cell-based, plate reader, dry powder samples (AID 743197); format: functional; settings: OVCAR-8
[11] = target: Paired box protein Pax-8 (Homo sapiens, UniProt Q06710); experiment: inhibitors of PAX8-driven TPO luciferase reporter, dose response, RMG-I cells, cherry-pick (AID 687027); format: functional, cell-based;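 also: luciferase reporter driven by Pax8 target thyroperoxidase promoter measured by SteadyGlo luminescence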
[12] = tested on: SN12K1; experiment: cells; format: functional; settings: Homo sapiens
[13] = tested on: P388; experiment: cells; format: functional; settings: Mus musculus
[14] = tested on: P388/ADR; experiment: cells; format: functional; settings: Mus musculus
[15] = target: T2, Protein RecA (Mycobacterium tuberculosis, UniProt P9WHJ3); experiment: Fluorescence Cell-Free Homogeneous Dose Retest to Identify Inhibitors of RecA-Intein Splicing Activity. [Related pubchem assays (depositor defined):AID2097, AID2223, AID489010, AID492950]; format: functional
T2 sequence (P9WHJ3 whole entry): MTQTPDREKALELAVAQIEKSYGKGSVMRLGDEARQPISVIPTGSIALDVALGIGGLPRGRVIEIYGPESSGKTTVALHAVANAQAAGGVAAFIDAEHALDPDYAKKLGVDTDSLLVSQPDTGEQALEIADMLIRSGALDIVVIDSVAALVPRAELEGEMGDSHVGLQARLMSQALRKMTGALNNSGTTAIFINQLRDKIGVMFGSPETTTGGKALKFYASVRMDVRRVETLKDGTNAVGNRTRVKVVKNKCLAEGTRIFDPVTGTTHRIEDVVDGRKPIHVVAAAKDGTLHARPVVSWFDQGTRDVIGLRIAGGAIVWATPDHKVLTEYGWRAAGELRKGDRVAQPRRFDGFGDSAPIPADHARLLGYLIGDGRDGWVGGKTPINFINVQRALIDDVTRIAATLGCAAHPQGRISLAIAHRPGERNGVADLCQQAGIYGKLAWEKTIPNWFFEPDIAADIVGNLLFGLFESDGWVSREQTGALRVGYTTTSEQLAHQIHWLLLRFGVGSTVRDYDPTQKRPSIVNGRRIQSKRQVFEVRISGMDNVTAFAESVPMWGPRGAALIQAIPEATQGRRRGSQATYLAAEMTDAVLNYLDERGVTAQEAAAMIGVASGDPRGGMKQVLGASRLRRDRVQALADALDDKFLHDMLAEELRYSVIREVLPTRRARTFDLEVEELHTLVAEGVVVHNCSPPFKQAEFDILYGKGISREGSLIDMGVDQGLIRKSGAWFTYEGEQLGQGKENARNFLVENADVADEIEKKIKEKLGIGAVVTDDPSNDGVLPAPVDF

[16] = target: Genome polyprotein (dengue virus type 2, UniProt P29990); experiment: Dengue-2 NS5 methyltransferase inhibitors, primary screen, biochemical, confirmation dose response (AID 588689); format: functional
[17] = target: T3, Replicative DNA helicase DnaB (Mycobacterium tuberculosis, UniProt P9WMR3); experiment: DnaB intein splicing inhibitors, dose response, biochemical, cell-free fluorescence (AID 449749); format: functional
T3 sequence (P9WMR3 whole entry): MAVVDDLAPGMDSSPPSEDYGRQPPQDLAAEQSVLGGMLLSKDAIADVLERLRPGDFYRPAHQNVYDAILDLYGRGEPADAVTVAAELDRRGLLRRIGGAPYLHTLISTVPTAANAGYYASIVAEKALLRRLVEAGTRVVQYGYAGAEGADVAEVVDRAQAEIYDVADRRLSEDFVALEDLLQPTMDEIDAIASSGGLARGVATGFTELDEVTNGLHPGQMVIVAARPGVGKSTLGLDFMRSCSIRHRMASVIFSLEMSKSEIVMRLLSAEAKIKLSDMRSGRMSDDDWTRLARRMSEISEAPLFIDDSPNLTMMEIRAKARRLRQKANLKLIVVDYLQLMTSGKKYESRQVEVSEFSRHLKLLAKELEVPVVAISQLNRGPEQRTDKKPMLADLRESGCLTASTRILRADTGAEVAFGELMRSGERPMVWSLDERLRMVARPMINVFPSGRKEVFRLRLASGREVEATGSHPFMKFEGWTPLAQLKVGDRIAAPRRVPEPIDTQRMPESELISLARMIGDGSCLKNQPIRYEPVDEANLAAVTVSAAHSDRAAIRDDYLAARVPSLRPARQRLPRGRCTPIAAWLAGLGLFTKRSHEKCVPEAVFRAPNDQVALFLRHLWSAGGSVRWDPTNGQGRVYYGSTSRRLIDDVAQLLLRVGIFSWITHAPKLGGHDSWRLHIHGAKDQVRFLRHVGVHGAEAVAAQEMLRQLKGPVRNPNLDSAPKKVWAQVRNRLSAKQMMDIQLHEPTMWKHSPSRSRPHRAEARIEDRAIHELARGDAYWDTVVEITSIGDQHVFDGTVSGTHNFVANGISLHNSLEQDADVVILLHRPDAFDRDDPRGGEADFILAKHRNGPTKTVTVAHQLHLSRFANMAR

[18] = THP-1 cell cytotoxicity, dose response, cytotoxicity control for Vif-APOBEC3G degradation inhibitor project, THP-1 cells (AID 1117359); format: functional; settings: Human immunodeficiency virus 1, THP-1
[19] = Luminescence Cell-Based Dose Retest to Confirm Inhibitors of Cancer Stem Cells. [Related pubchem assays (depositor defined):AID2717, AID2721]; format: functional; settings: Homo sapiens
[20] = target: Heat shock protein HSP 90-alpha (Homo sapiens, UniProt P07900); format: functional, organism-based
[21] = target: T4, Heat shock factor protein 1 (Mus musculus, UniProt P38532); experiment: inhibition of MG132-induced HSE-luciferase signal, confirmation, cell-based, NIH3T3, luminescence, dose retest (AID 2382); format: functional;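 also: NIH3T3 fibroblasts with HSF1-driven luciferase reporter stressed by proteasome inhibitor MG132; luminescence from HSF1-driven luciferase expression after 8 hours of MG132 stress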
T4 sequence (P38532 whole entry): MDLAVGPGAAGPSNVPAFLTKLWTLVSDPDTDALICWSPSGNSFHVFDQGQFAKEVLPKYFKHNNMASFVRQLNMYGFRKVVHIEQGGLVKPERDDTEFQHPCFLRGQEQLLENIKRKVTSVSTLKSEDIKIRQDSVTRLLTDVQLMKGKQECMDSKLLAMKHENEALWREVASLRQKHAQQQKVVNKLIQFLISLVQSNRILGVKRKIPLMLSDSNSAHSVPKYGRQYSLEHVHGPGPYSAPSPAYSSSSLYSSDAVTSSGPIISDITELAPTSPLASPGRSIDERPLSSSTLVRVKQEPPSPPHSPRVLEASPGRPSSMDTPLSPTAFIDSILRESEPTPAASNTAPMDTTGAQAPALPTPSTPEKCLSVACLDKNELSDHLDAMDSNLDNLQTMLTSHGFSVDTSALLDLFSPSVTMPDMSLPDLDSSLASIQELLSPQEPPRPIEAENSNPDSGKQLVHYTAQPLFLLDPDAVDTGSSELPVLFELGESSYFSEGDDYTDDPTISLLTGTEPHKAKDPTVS

Genome polyprotein, sequence (P29990 2492-3391 limits assumed): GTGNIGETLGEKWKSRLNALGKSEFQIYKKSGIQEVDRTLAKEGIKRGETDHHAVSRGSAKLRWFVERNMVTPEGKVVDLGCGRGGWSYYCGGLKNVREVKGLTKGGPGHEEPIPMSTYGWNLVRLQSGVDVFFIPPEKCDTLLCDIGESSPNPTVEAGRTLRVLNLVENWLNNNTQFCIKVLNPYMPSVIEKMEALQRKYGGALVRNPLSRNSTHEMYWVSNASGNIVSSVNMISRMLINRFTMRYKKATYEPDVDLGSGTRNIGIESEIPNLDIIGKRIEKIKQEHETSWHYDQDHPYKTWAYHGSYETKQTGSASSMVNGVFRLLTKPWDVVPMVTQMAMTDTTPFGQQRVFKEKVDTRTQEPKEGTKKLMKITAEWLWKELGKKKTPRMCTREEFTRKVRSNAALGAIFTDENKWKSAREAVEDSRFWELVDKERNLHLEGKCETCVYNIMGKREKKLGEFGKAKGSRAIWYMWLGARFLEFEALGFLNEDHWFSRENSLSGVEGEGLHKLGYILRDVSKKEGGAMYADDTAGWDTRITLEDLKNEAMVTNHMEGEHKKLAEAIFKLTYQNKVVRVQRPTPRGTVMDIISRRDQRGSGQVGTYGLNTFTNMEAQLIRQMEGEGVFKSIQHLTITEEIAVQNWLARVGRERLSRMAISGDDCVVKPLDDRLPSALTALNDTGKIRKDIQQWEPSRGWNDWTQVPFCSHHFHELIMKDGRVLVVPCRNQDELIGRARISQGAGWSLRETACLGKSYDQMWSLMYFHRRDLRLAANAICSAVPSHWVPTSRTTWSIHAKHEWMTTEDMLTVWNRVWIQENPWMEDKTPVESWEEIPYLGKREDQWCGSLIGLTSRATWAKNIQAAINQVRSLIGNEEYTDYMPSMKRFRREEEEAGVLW
Peroxisome proliferator-activated receptor gamma/Nuclear receptor coactivator 3, sequence (P37231 whole entry): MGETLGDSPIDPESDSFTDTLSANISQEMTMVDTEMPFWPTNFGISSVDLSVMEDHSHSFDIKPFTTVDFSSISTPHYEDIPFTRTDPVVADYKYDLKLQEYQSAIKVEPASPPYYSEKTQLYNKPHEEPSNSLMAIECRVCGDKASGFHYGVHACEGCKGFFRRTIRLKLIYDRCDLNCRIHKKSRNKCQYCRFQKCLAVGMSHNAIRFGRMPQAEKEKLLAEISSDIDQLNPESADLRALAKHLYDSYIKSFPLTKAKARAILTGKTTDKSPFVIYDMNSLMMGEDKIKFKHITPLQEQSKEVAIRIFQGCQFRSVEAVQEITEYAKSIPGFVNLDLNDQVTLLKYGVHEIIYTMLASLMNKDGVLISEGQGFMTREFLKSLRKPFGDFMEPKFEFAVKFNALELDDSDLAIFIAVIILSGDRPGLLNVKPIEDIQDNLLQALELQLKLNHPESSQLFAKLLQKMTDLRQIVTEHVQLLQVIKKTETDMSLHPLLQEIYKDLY
Peroxisome proliferator-activated receptor gamma/Nuclear receptor coactivator 3, sequence (Q9Y6Q9 whole entry, further chain): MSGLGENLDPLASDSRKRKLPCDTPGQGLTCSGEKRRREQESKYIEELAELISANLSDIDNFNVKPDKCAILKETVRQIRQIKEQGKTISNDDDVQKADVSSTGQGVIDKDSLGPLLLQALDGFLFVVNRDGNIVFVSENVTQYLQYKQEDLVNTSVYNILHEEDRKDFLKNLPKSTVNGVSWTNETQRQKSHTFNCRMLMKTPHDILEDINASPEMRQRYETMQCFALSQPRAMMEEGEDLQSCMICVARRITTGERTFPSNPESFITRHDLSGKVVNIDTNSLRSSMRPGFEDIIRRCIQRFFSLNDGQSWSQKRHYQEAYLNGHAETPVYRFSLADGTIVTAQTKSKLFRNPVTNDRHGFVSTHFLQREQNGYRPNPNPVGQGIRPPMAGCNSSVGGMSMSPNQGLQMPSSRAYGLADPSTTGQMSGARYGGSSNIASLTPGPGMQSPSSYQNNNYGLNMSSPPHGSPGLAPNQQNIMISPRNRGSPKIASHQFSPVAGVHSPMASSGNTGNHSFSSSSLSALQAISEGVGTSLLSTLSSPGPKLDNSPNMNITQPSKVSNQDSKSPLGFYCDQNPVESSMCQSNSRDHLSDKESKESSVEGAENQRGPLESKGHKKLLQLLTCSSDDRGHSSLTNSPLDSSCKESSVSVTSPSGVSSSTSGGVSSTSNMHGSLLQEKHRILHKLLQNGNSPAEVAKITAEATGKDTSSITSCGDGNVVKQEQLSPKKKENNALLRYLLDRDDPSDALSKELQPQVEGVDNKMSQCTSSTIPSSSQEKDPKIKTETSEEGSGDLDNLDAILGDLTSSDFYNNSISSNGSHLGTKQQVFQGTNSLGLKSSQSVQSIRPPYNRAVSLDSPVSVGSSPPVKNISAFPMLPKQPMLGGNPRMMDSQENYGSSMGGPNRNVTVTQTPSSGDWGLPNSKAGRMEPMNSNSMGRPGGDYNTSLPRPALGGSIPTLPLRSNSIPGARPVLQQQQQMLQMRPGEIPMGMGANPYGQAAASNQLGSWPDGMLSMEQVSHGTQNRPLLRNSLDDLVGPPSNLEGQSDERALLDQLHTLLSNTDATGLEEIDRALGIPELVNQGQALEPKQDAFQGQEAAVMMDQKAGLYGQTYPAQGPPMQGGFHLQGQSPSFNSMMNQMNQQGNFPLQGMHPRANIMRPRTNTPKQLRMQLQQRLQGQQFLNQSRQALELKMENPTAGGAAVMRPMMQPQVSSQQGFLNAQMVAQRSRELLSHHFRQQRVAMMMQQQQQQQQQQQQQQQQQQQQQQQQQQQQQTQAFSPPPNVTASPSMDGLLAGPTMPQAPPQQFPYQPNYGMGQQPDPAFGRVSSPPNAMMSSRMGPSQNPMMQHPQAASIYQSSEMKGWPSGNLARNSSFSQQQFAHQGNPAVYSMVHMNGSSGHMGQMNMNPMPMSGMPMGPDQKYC
Peroxisome proliferator-activated receptor gamma/Nuclear receptor coactivator 1, sequence (P37231 whole entry): as the sequence (P37231 whole entry) above
Peroxisome proliferator-activated receptor gamma/Nuclear receptor coactivator 1, sequence (Q15788 whole entry, further chain): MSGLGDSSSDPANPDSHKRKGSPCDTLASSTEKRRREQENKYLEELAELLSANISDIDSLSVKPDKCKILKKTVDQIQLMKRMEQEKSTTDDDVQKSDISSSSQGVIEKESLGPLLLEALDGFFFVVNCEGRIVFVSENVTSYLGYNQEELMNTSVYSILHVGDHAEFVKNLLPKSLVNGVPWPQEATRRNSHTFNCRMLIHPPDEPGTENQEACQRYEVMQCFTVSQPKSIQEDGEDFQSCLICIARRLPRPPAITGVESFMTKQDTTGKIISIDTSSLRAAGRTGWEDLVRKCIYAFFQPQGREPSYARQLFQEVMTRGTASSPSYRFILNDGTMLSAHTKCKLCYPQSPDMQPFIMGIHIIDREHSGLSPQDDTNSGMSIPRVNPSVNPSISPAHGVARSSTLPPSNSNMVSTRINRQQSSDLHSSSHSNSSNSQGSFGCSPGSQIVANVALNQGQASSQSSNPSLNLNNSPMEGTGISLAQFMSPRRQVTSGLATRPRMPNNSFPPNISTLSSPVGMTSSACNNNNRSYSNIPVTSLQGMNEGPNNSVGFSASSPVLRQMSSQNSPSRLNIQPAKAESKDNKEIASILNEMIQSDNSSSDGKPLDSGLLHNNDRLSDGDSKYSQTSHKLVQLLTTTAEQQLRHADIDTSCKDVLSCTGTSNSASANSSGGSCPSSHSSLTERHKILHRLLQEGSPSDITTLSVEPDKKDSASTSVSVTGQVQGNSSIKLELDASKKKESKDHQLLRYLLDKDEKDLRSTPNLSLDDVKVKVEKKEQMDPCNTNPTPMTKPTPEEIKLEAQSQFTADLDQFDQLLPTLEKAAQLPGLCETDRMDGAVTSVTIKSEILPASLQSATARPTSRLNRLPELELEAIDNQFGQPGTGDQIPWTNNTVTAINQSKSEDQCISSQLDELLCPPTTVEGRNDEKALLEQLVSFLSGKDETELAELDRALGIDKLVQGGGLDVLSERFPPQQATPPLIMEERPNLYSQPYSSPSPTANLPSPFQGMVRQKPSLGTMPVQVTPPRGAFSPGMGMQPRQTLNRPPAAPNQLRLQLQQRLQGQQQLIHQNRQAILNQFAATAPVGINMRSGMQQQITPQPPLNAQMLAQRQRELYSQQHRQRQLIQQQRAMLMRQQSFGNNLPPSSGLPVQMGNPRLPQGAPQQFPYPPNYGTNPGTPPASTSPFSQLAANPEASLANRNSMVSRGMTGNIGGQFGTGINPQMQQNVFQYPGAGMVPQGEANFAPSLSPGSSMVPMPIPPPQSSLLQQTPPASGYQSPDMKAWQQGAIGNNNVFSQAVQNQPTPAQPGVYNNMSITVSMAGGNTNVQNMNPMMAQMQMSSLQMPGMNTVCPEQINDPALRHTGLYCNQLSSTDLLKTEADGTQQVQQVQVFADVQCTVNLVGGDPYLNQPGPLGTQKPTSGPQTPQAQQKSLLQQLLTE

In the case of `CN1CCN(c2ncnc3ccc(Br)cc23)CC1`, the IC50 [1] is reported as 6.08 µM (active), the IC50 [2] is reported as 4.83 µM (active) and the IC50 [3] is reported as > 20 µM (inactive). The EC50 [4] was 17.8 µM (active).
With `CC(OC(=O)c1cc2sccc2n1C)C(=O)NCc1cccs1` (stereo unspecified) the EC50 [5] was > 79.4 µM (not active), the EC50 [6] was > 79.4 µM (not active) and the EC50 [7] was > 79.4 µM (not active).
With `COC(=O)c1c(/N=C/N(C)C)sc2c1CCN(c1ncc(C(F)(F)F)cc1Cl)C2` the EC50 [8] was > 99 µM (inactive) and the EC50 [9] was > 99 µM (inactive).
For `CCCC#Cc1ccc2c(c1)O[C@H](CN(C)Cc1ccccc1)[C@@H](C)CN([C@H](C)CO)S2(=O)=O`, the AC50 [10] was 58.3 µM (active) and the AC50 [11] was 16.2 µM (active).
In the case of `CC(=O)OCC1OC(NC(=O)N(CCCl)N=O)C(OC(C)=O)C(OC(C)=O)C1OC(C)=O` (stereo unspecified), the GI50 [12] is reported as > 100 µM (inactive), the GI50 [13] is reported as 26.7 µM (inactive) and the GI50 [14] is reported as 44.9 µM (inactive).
In the case of `CC(=O)OC(C)(C)/C=C/C(=O)[C@](C)(O)[C@H]1[C@H](O)C[C@@]2(C)[C@@H]3CC=C4[C@@H](C=C(O)C(=O)C4(C)C)[C@]3(C)C(=O)C[C@]12C` [CUCURBITACIN E], the GI50 [12] is reported as 0.0336 µM (active), the GI50 [13] is reported as 0.0379 µM (active) and the GI50 [14] is reported as 0.0375 µM (active).
For `CCOc1cccc2cc(C(=O)Nc3cc(C)on3)c(=O)oc12`, the EC50 [5] was 30.1 µM (not active), the EC50 [6] was 22.4 µM (not active) and the EC50 [7] was 24.6 µM (not active).
For `CC1=NN(Cc2ccccc2)C(=O)C1C(c1ccc(Cl)cc1)C(C#N)C#N` (stereo unspecified), the EC50 [15] was 2.5 µM (active), the IC50 [16] was 55.2 µM (active) and the AC50 [17] was 5.34 µM (active).
In the case of `COc1ccc(NC(=O)CC2Nc3cccc4cccc(c34)NC2=O)cc1` (stereo unspecified), the CC50 [18] is reported as > 40 µM (active).
For `COc1ccc(C2COc3c(ccc(O)c3C)C2)cc1OC` (stereo unspecified), the GI50 [12] was 45.8 µM (inactive), the GI50 [13] was 40.9 µM (inactive) and the GI50 [14] was 35.9 µM (inactive).
With `Oc1ccc(C2=NN(c3ccccc3)C(c3ccc(F)cc3)C2)cc1` (stereo unspecified) the AC50 [19] was 2.97 µM (active), the AC50 [20] was 4.34 µM (active) and the EC50 [21] was > 195 µM (not active).
For `O=C(O)[C@H](Cc1ccccc1)N1C(=O)c2c(Cl)c(Cl)c(Cl)c(Cl)c2C1=O`, the IC50 [16] was 23.9 µM (active).
